What was measured:
CCRF-CEM = experiment: NCI human tumor cell panel: CCRF-CEM (Leukemia); assay type: cell-based; details: Leukemia
RPMI-8226 = experiment: NCI human tumor cell panel: RPMI-8226 (Leukemia); assay type: cell-based; details: RPMI-8226, Leukemia
SR = experiment: NCI human tumor cell panel: SR (Leukemia); assay type: cell-based; details: Leukemia
HOP-62 = experiment: NCI human tumor cell panel: HOP-62 (Non-Small Cell Lung Cancer); assay type: cell-based; details: HOP-62, Non-Small Cell Lung Cancer
NCI-H23 = experiment: NCI human tumor cell panel: NCI-H23 (Non-Small Cell Lung Cancer); assay type: cell-based; details: NCI-H23, Non-Small Cell Lung Cancer
NCI-H460 = experiment: NCI human tumor cell panel: NCI-H460 (Non-Small Cell Lung Cancer); assay type: cell-based; details: NCI-H460, Non-Small Cell Lung Cancer
SW-620 = experiment: NCI human tumor cell panel: SW-620 (Colon Cancer); assay type: cell-based; details: SW-620, Colon Cancer
SF-295 = experiment: NCI human tumor cell panel: SF-295 (CNS Cancer); assay type: cell-based; details: SF-295, CNS Cancer
SF-539 = experiment: NCI human tumor cell panel: SF-539 (CNS Cancer); assay type: cell-based; details: SF-539, CNS Cancer
SNB-75 = experiment: NCI human tumor cell panel: SNB-75 (CNS Cancer); assay type: cell-based; details: SNB-75, CNS Cancer
LOX IMVI = experiment: NCI human tumor cell panel: LOX IMVI (Melanoma); assay type: cell-based; details: Melanoma
M14 = experiment: NCI human tumor cell panel: M14 (Melanoma); assay type: cell-based; details: M14, Melanoma
SK-MEL-2 = experiment: NCI human tumor cell panel: SK-MEL-2 (Melanoma); assay type: cell-based; details: SK-MEL-2, Melanoma
SK-MEL-5 = experiment: NCI human tumor cell panel: SK-MEL-5 (Melanoma); assay type: cell-based; details: SK-MEL-5, Melanoma
UACC-257 = experiment: NCI human tumor cell panel: UACC-257 (Melanoma); assay type: cell-based; details: UACC-257, Melanoma
UACC-62 = experiment: NCI human tumor cell panel: UACC-62 (Melanoma); assay type: cell-based; details: UACC-62, Melanoma
IGROV1 = experiment: NCI human tumor cell panel: IGROV1 (Ovarian Cancer); assay type: cell-based; details: IGROV-1, IGROV1, Ovarian Cancer
OVCAR-4 = experiment: NCI human tumor cell panel: OVCAR-4 (Ovarian Cancer); assay type: cell-based; details: OVCAR-4, Ovarian Cancer, read-out: Log10 TGI (converted)
OVCAR-5 = experiment: NCI human tumor cell panel: OVCAR-5 (Ovarian Cancer); assay type: cell-based; details: OVCAR-5, Ovarian Cancer
OVCAR-8 = experiment: NCI human tumor cell panel: OVCAR-8 (Ovarian Cancer); assay type: cell-based; details: OVCAR-8, Ovarian Cancer
786-0 = experiment: NCI human tumor cell panel: 786-0 (Renal Cancer); assay type: cell-based; details: 786-0, Renal Cancer
A498 = experiment: NCI human tumor cell panel: A498 (Renal Cancer); assay type: cell-based; details: A498, Renal Cancer
SN12C = experiment: NCI human tumor cell panel: SN12C (Renal Cancer); assay type: cell-based; details: Renal Cancer
DU-145 = experiment: NCI human tumor cell panel: DU-145 (Prostate Cancer); assay type: cell-based; details: DU-145, Prostate Cancer
MCF7 = experiment: NCI human tumor cell panel: MCF7 (Breast Cancer); assay type: cell-based; details: MCF7, Breast Cancer
MCF7/ADR-RES = experiment: NCI human tumor cell panel: MCF7/ADR-RES (Breast Cancer); assay type: cell-based; details: Breast Cancer
HS 578T = experiment: NCI human tumor cell panel: HS 578T (Breast Cancer); assay type: cell-based; details: Breast Cancer
MDA-MB-435 = experiment: NCI human tumor cell panel: MDA-MB-435 (Breast Cancer); assay type: cell-based; details: MDA-MB-435, Breast Cancer
MDA-N = experiment: NCI human tumor cell panel: MDA-N (Breast Cancer); assay type: cell-based; details: Breast Cancer
BT-549 = experiment: NCI human tumor cell panel: BT-549 (Breast Cancer); assay type: cell-based; details: BT-549, Breast Cancer
HOP-92 = experiment: NCI human tumor cell panel: HOP-92 (Non-Small Cell Lung Cancer)
[1] = read-out: Log10 GI50 (converted)
[2] = read-out: Log10 TGI (converted)

## O=Cc1ccc(-c2ccc(-c3ccc(C=O)s3)[se]2)s1 [NSC 675345]
CCRF-CEM; [1]
  GI50: > 100 µM
CCRF-CEM; [2]
  IC (TGI): > 100 µM
RPMI-8226; [1]
  GI50: > 100 µM
RPMI-8226; read-out: Log10 TGI
  IC (TGI): > 100 µM
SR; [1]
  GI50: > 100 µM
SR; [2]
  IC (TGI): > 100 µM
HOP-62; [1]
  GI50: 47.9 µM
HOP-62; [2]
  IC (TGI): > 100 µM
NCI-H23; [1]
  GI50: 21.9 µM
NCI-H23; [2]
  IC (TGI): > 100 µM
NCI-H460; [1]
  GI50: 0.813 µM
NCI-H460; [2]
  IC (TGI): > 100 µM
SW-620; [1]
  GI50: 38 µM
SW-620; [2]
  IC (TGI): > 100 µM
SF-295; [1]
  GI50: 38.9 µM
SF-295; [2]
  IC (TGI): > 100 µM
SF-539; [1]
  GI50: > 100 µM
SF-539; [2]
  IC (TGI): > 100 µM
SNB-75; [1]
  GI50: 52.5 µM
SNB-75; [2]
  IC (TGI): > 100 µM
LOX IMVI; [1]
  GI50: > 100 µM
LOX IMVI; [2]
  IC (TGI): > 100 µM
M14; [1]
  GI50: > 100 µM
M14; [2]
  IC (TGI): > 100 µM
SK-MEL-2; [1]
  GI50: 77.6 µM
SK-MEL-2; [2]
  IC (TGI): > 100 µM
SK-MEL-5; [1]
  GI50: > 100 µM
SK-MEL-5; [2]
  IC (TGI): > 100 µM
UACC-257; [1]
  GI50: 1.38 µM
UACC-257; [2]
  IC (TGI): > 100 µM
UACC-62; [1]
  GI50: 0.347 µM
UACC-62; [2]
  IC (TGI): 2.82 µM
IGROV1; [1]
  GI50: 4.37 µM
IGROV1; [2]
  IC (TGI): 22.9 µM
OVCAR-4
  IC (TGI): > 100 µM
OVCAR-5; [1]
  GI50: 1.55 µM
OVCAR-5; [2]
  IC (TGI): 5.37 µM
OVCAR-8; [1]
  GI50: > 100 µM
OVCAR-8; [2]
  IC (TGI): > 100 µM
786-0; [1]
  GI50: 11 µM
786-0; [2]
  IC (TGI): > 100 µM
A498; [1]
  GI50: 0.479 µM
A498; [2]
  IC (TGI): 1.55 µM
SN12C; [1]
  GI50: 0.257 µM
SN12C; [2]
  IC (TGI): 1.66 µM
DU-145; [1]
  GI50: > 100 µM
DU-145; [2]
  IC (TGI): > 100 µM
MCF7; [1]
  GI50: 0.724 µM
MCF7; [2]
  IC (TGI): 5.62 µM
MCF7/ADR-RES; [1]
  GI50: > 100 µM
MCF7/ADR-RES; [2]
  IC (TGI): > 100 µM
HS 578T; [1]
  GI50: 67.6 µM
HS 578T; [2]
  IC (TGI): > 100 µM
MDA-MB-435; [1]
  GI50: 58.9 µM
MDA-MB-435; [2]
  IC (TGI): > 100 µM
MDA-N; [1]
  GI50: > 100 µM
MDA-N; [2]
  IC (TGI): > 100 µM
BT-549; [1]
  GI50: > 100 µM
BT-549; [2]
  IC (TGI): > 100 µM
HOP-92; HOP-92, read-out: Log10 GI50 (converted)
  GI50: 14.5 µM
HOP-92; HOP-92, read-out: Log10 TGI
  IC (TGI): 55 µM

From US20040063662A1, “Selenophene anti-tumor agents” (priority 1996, published 2004)
